According to patent publication US20230031406A1, “COMPOUNDS AND COMPOSITIONS FOR TREATING CONDITIONS ASSOCIATED WITH NLRP ACTIVITY” (Novartis AG, priority 2018, published 2023):
Read-outs that look alike come from different tables or passages of the source. Each block holds one compound with its values, some of them ahead of it.

Test system: PMA-differentiated THP-1 cells
Experiment: IL-1β production in PMA-differentiated THP-1 cells stimulated with gramicidin (hTHP-1 assay containing 2% fetal bovine serum; Procedures 1 and 2)
Type: cell-based, human
Settings: 2% fetal bovine serum
Method in brief: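 Secreted IL-1β, read by HTRF, after gramicidin challenge (5 μM, 2 h) of THP-1 cells differentiated with PMA (20 ng/ml, 16-18 h) and plated at 50,000 cells/well in 2% FBS medium. Compounds, 0.0017-100 μM final with 0.37% DMSO, were added 1 h before stimulation.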

[1] = Table B2, class symbols, read-out: hTHP-1 IC50
[2] = Homo sapiens, THP-1, Table B3, hTHP-1 assay, class symbols, read-out: IC50
[3] = Table B4, class symbols, read-out: hTHP-1 IC50
[4] = Homo sapiens, THP-1, Table B1, class symbols, read-out: Average IC50 of compounds in hTHP-1 assay: hTHP-1 IC50
[5] = Table B1, class symbols, read-out: Average IC50 of compounds in hTHP-1 assay: hTHP-1 IC50

IC50 [1]: 1000 to 5000 nM
SMILES: CC(C)(O)c1cc(S(N)(=O)=NC(=O)Nc2c3c(nc4c2CCC4(C)C)CCC3)nn1-c1ccc(F)cc1 (single isomer, unassigned) [Compound 705b, (R) or (S)-N′-((3,3-dimethyl-1,2,3,5,6,7-hexahydrodicyclopenta [b,e]pyridin-8-yl)carbamoyl)-1-(4-fluorophenyl)-5-(2-hydroxypropan-2-yl)-1H-pyrazole-3-sulfonimidamide]

IC50 [2]: 1000 to 5000 nM
SMILES: Cc1c(C(F)(F)F)nc2c(c1NC(=O)N=[S@@](N)(=O)c1cnc(C(C)(C)O)s1)C(C)CC2 (stereo partly drawn) [Example 575, (R)-N′-((3,5-dimethyl-2-(trifluoromethyl)-6,7-dihydro-5H-cyclopenta[b]pyridin-4-yl)carbamoyl)-2-(2-hydroxypropan-2-yl)thiazole-5-sulfonimidamide]

IC50 [3]: 5000 to 30000 nM
SMILES: CCn1cc(F)c(S(N)(=O)=NC(=O)Nc2c3c(nc(C)c2-c2ccccc2)CCC3)n1 (single isomer, unassigned) [Example 769, (R) or (S)-1-ethyl-4-fluoro-N′-((2-methyl-3-phenyl-6,7-dihydro-5H-cyclopenta[b]pyridin-4-yl)carbamoyl)-1H-pyrazole-3-sulfonimidamide]

IC50 [1]: 5000 to 30000 nM
SMILES: Cc1c(C2CC2)nc2c(c1NC(=O)N=S(N)(=O)c1cc(C(C)(C)O)cs1)CCC2C (single isomer, unassigned) [Compound 656c, (S, R) or (S, S) or (R, S) or (R, R)-N′-((2-Cyclopropyl-3,7-dimethyl-6,7-dihydro-5H-cyclopenta[b]pyridin-4-yl)carbamoyl)-4-(2-hydroxypropan-2-yl)thiophene-2-sulfonimidamide]

IC50 [4]: 1000 to 5000 nM
SMILES: CC(C)n1ccc(S(N)(=O)=NC(=O)Nc2c3c(nc4c2CCC4)CCC3)n1 (single isomer, unassigned) [Compound 119a, (R) or (S)-N′-((1,2,3,5,6,7-hexahydrodicyclo-penta[b,e]pyridin-8-yl)carbamoyl)-1-isopropyl-1H-pyrazole-3-sulfonimidamide]

IC50 [5]: 1000 to 5000 nM
SMILES: CC(C)c1c(-c2ccccc2)nc2c(c1NC(=O)N=S(N)(=O)c1cnc(C(C)(C)O)s1)CCC2 (single isomer, unassigned) [Compound 145b, (S) or (R)-2-(2-hydroxy-propan-2-yl)-N′-((3-isopropyl-2-phenyl-6,7-dihydro-5H-cyclopenta[b]pyridin-4-yl)carbamoyl)thiazole-5-sulfonimidamide]

IC50 [5]: 1000 to 5000 nM
SMILES: CC(C)(O)c1cc(F)c(S(N)(=O)=NC(=O)Nc2c3c(nc4c2CCC42CC2)CCC3)s1 (single isomer, unassigned) [Compound 101a, (S) or (R)-3-fluoro-5-(2-hydroxypropan-2-yl)-N′-((1′,5′,6′,7′-tetrahydro-2′H-spiro[cyclopropane-1,3′-dicyclopenta[b,e]pyridin]-8′-yl)carbamoyl)thiophene-2-sulfonimidamide]

IC50 [4]: 40 to 200 nM
SMILES: CC(C)(O)c1ncc(S(N)(=O)=NC(=O)Nc2c3c(nc4c2CCC42CC2)CCC3)s1 (stereo not drawn) [Compound 136, 2-(2-hydroxypropan-2-yl)-N′-((1′,5′,6′,7′-tetrahydro-2′H-spiro[cyclopropane-1,3′-dicyclopenta[b,e]pyridin]-8′-yl)carbamoyl)thiazole-5-sulfonimidamide]

IC50 [4]: 200 to 1000 nM
SMILES: Cc1c(C2CC2)nc2c(c1NC(=O)N=S(N)(=O)c1cnc(C(C)(C)O)s1)CCC2 (stereo not drawn) [Compound 124, N′-((2-cyclopropyl-3-methyl-6,7-dihydro-5H-cyclopenta[b]pyridin-4-yl)carbamoyl)-2-(2-hydroxypropan-2-yl)thiazole-5-sulfonimidamide]

IC50 [1]: 40 to 200 nM
SMILES: CC(C)(O)c1sc(S(N)(=O)=NC(=O)Nc2c3c(nc4c2CCC4(C)C)CCC3)nc1CO (single isomer, unassigned) [Compound 642b, (R) or (S)-N′-((3,3-dimethyl-1,2,3,5,6,7-hexahydrodicyclopenta [b,e]pyridin-8-yl)carbamoyl)-4-(hydroxymethyl)-5-(2-hydroxypropan-2-yl)thiazole-2-sulfonimidamide]

IC50 (Homo sapiens, THP-1, Table B2, numeric bounds, read-out: hTHP-1 IC50): > 30000 nM
SMILES: CC(C)(O)c1cc(S(N)(=O)=NC(=O)Nc2c3c(nc4c2CCC4(C)C)CCC3)nn1-c1ccccc1 (single isomer, unassigned) [Compound 663a, (S) or (R)-N′-((3,3-dimethyl-1,2,3,5,6,7-hexahydrodicyclopenta [b,e]pyridin-8-yl)carbamoyl)-5-(2-hydroxypropan-2-yl)-1-phenyl-1H-pyrazole-3-sulfonimidamide]

IC50 [1]: 40 to 200 nM
SMILES: CC1(C)CCc2c1nc1c(c2NC(=O)N=S(N)(=O)c2cnc(C(C)(O)CO)s2)CCC1 (single isomer, unassigned) [Compound 201b, (S, R) or (R, R) or (R, S) or (S, S)-2-(1,2-Dihydroxypropan-2-yl)-N′-((3,3-dimethyl-1,2,3,5,6,7-hexahydrodicyclopenta [b,e]pyridin-8-yl)carbamoyl) thiazole-5-sulfonimidamide]

IC50 [2]: 40 to 200 nM
SMILES: CC1(C)CCc2c1nc1c(c2NC(=O)N=S(N)(=O)c2nn(C(F)F)cc2F)CCC1 (stereo not drawn) [Example 621, 1-(Difluoromethyl)-N′-((3,3-dimethyl-1,2,3,5,6,7-hexahydrodicyclopenta[b,e]pyridin-8-yl)carbamoyl)-4-fluoro-1H-pyrazole-3-sulfonimidamide]

IC50 [3]: 200 to 1000 nM
SMILES: CC1(C)CCc2c1nc1c(c2NC(=O)N=S(N)(=O)c2sc(C(O)(CO)CO)nc2CO)CCC1 (single isomer, unassigned) [Example 777, (R) or (S)-N′-((3,3-dimethyl-1,2,3,5,6,7-hexahydrodicyclopenta[b,e]pyridin-8-yl)carbamoyl)-4-(hydroxymethyl)-2-(1,2,3-trihydroxypropan-2-yl)-thiazole-5-sulfonimidamide]

IC50 [5]: 40 to 200 nM
SMILES: CC1CCc2c1nc1c(c2NC(=O)N=S(N)(=O)c2ccn(C(F)F)n2)CCC1 (single isomer, unassigned) [Compound 184a, (R,R) or (R,S)-1-(difluoro-methyl)-N′-((3-methyl-1,2,3,5,6,7-hexahydro-dicyclopenta[b,e]pyridin-8-yl)carbamoyl)-1H-pyrazole-3-sulfonimidamide]

IC50 [4]: 40 to 200 nM
SMILES: C[C@@H]1CCc2c1nc1c(c2NC(=O)N=[S@@](N)(=O)c2cnc(C(C)(C)O)s2)CCC1 [Compound 162bb, (R,R)-2-(2-hydroxypropan-2-yl)-N′-((3-methyl-1,2,3,5,6,7-hexahydrodicyclo-penta[b,e]pyridin-8-yl)carbamoyl)thiazole-5-sulfonimidamide]

IC50 [3]: 40 to 200 nM
SMILES: CCn1cc(F)c(S(N)(=O)=NC(=O)Nc2c3c(nc4c2CCC4)CCC3)n1 (single isomer, unassigned) [Example 761, (R) or (S)-1-ethyl-4-fluoro-N′-((1,2,3,5,6,7-hexahydrodicyclopenta[b,e]pyridin-8-yl)carbamoyl)-1H-pyrazole-3-sulfonimidamide]

IC50 [3]: 5000 to 30000 nM
SMILES: CCn1cc(F)c(S(N)(=O)=NC(=O)Nc2c3c(nc(C(F)(F)F)c2C2CC2)CCC3)n1 (single isomer, unassigned) [Example 774, (S) or (R)-N′-((3-cyclopropyl-2-(trifluoromethyl)-6,7-dihydro-5H-cyclopenta[b]pyridin-4-yl)carbamoyl)-1-ethyl-4-fluoro-1H-pyrazole-3-sulfonimidamide]

IC50 (Homo sapiens, THP-1, Table B4, class symbols, read-out: hTHP-1 IC50): 200 to 1000 nM
SMILES: Cc1c(C(F)(F)F)nc2c(c1NC(=O)N=S(N)(=O)c1nn(C(C)C)cc1F)CCC2 (stereo not drawn) [Example 734, 4-Fluoro-1-isopropyl-N′-((3-methyl-2-(trifluoromethyl)-6,7-dihydro-5H-cyclopenta[b]pyridin-4-yl)carbamoyl)-1H-pyrazole-3-sulfonimidamide]

IC50 [2]: 1000 to 5000 nM
SMILES: CC(C)n1nc(S(N)(=O)=NC(=O)Nc2c3c(nc4c2CC[C@H]4C)CCC3)cc1CO (single isomer, unassigned) [Example 643, (R) or (S)-5-(hydroxymethyl)-1-isopropyl-N′-(((R)-3-methyl-1,2,3,5,6,7-hexahydrodicyclopenta[b,e]pyridin-8-yl)carbamoyl)-1H-pyrazole-3-sulfonimidamide]

IC50 [1]: 5000 to 30000 nM
SMILES: CCc1nc2c(c(NC(=O)N=S(N)(=O)c3sc(C(C)(C)O)cc3F)c1C1CC1)CCC2 (single isomer, unassigned) [Compound 631a, (S) or (R)-N′-((3-cyclopropyl-2-ethyl-6,7-dihydro-5H-cyclopenta[b]pyridin-4-yl)carbamoyl)-3-fluoro-5-(2-hydroxypropan-2-yl)thiophene-2-sulfonimidamide]

SMILES: CCOC(=O)c1nc2c(c(NC(=O)N=S(=O)(N[Si](C)(C)C(C)(C)C)c3cnc(C(C)(C)O)s3)c1C)CCC2 (stereo not drawn) [Example 613, Ethyl 4-(3-(((tert-butyldimethylsilyl)amino)(2-(2-hydroxypropan-2-yl)thiazol-5-yl)(oxo)-l6-sulfaneylidene)ureido)-3-methyl-6,7-dihydro-5H-cyclopenta[b]pyridine-2-carboxylate]
IC50 (Homo sapiens, THP-1, Table B3, hTHP-1 assay, numeric values, read-out: IC50): > 30000 nM

IC50 (Table B3, hTHP-1 assay, class symbols, read-out: IC50): 8 to 40 nM
SMILES: CCn1cc(F)c(S(N)(=O)=NC(=O)Nc2c3c(nc4c2CC[C@H]4C)CCC3)n1 (single isomer, unassigned) [Example 669, (R) or (S)-1-ethyl-4-fluoro-N′-(((R)-3-methyl-1,2,3,5,6,7-hexahydrodicyclopenta[b,e]pyridin-8-yl)carbamoyl)-1H-pyrazole-3-sulfonimidamide]

IC50 [4]: 1000 to 5000 nM
SMILES: CC(C)c1nc(C(F)(F)F)nc(C(C)C)c1NC(=O)N=S(N)(=O)c1sc(C(C)(C)O)nc1CO (stereo not drawn) [Compound 179, N′-((4,6-diisopropyl-2-(trifluoromethyl)pyrimidin-5-yl)carbamoyl)-4-(hydroxymethyl)-2-(2-hydroxypropan-2-yl)thiazole-5-sulfonimidamide]
